Article PMC8115619, “Generation of a chemical genetic model for JAK3” (Scientific Reports, 2021)

Key:
[1] = system: IL-4 induced STAT6 phosphorylation in wild type BMDMs; assay: Inhibitor washout, IL-4 induced STAT6 phosphorylation, wild type BMDMs; assay type: cell-based, mouse; details: for inhibition of IL-4 induced STAT6 phosphorylation after inhibitor washout, wild type BMDMs: washed 3 times in PBS, IL-4 30 min to 2 h after washout, 10 μM TL6-144, 100 μM PF-06651600
Protocol: Covalent inhibitors would be predicted to have very slow off rates and therefore inhibition should remain even if the unbound inhibitors are washed out of the cells. To test this, cells were treated with a high concentration of inhibitor for 2 h before being washed 3 times in PBS and then incubated in media without inhibitor for 0.5 to 24 h. If the inhibitor acts via a non-covalent mechanism, inhibition would not be expected to remain following washout from the cells. Ruxolitinib is a non-covalent pan-JAK inhibitor that can inhibit multiple JAK-STAT pathways in macrophages. […] To confirm this was not the case, similar experiments were done in JAK3 Cys905Ser knockin cells. […] Similar experiments were also carried out with PF-06651600. […] As the level of inhibition was lower at 2 h post washout than 30 min the experiment was repeated to look at 4 and 24 h time points for the washout step.
Figure 4 Effect of inhibitor washout on JAK3 inhibition. BMDMs were isolated from wild type and JAK3 Cys905Ser knockin mice. […] The macrophages were then either stimulated with 10 ng/ml IL-4 for 30 min or washed 3 times in PBS and then incubated in media without inhibitor for the indicated times. The cells were then stimulated with IL-4 for 30 min and STAT6 phosphorylation determined by immunoblotting using levels of ERK1/2 as a loading control.
Bone marrow derived macrophages (BMDMs) were cultured as described. Briefly, bone marrow was flushed in PBS from the femurs and tibias of mice. Cells were cultured on bacterial grade plastic for 7 days at 37 °C, 5% CO2. Cells were then detached using Versene (Gibco), re-plated on tissue culture plastic in BMDM media (in DMEM supplemented with 10% heat inactivated FBS (Labtech), 2 mM L-glutamine, 100 U/ml penicillin G, 100 μg/ml streptomycin and 0.25 μg/ml amphotericin, 5 ng/ml M-CSF) and used within 48 h. Where indicated cells were stimulated with 10 ng/ml IL-4, 10 ng/ml GM-CSF, 10 ng/ml IL-10 or 10 ng/ml IFNβ. All cytokines were from PeproTech.
Cells were lysed directly into SDS sample buffer and aliquots run on 10% polyacrylamide gels using standard methods. Proteins were transferred onto nitrocellulose membranes, and specific proteins were detected by immunoblotting. Antibodies against tyrosine phosphorylated STATs were from Cell Signaling Technology (phospho-STAT1 #9167, phospho-STAT3 #9131, phospho-STAT5 #4322 and phospho-STAT6 #9361). The total ERK1/2 antibody used as a loading control was also from cell Signaling Technology (#4695). HRP-conjugated secondary antibodies were obtained from Pierce. Bands were detected using Clarity ECL reagents from BioRad and imaged on a Licor Odyssey Fc system. Quantification was carried out using Licor Image Studio software. After correction for the ERK1/2 levels to account for loading differences, percentage inhibition was calculated relative to the IL-4 stimulated condition. IC50 values were calculated using the same methods as for the in vitro IC50 values.

PHK = assay: Selectivity screen PHK; assay type: biochemical; details: 1 µM inhibitor, mean
Protocol: (§1) For the in vitro kinase assay, JAK3 (5–20 mU diluted in 50 mM Tris pH 7.5, 0.1 mM EGTA, 0.05% β-mercaptoethanol, 1 mg/ml BSA) was assayed against PDKtide ([…]) in a final volume of 25.5 µl containing 50 mM Tris pH 7.5, 0.1 mM EGTA, 0.05% β-mercaptoethanol, 100 µM substrate peptide, 10 mM magnesium acetate and 0.02 mM [33P-γ-ATP] (50–1000 cpm/pmole) and incubated for 30 min at room temperature. Assays were started by the addition of the ATP and stopped by addition of 5 µl of 0.5 M (3%) orthophosphoric acid and then harvested onto P81 Unifilter plates with a wash buffer of 50 mM orthophosphoric acid. To determine the Km for ATP, assays were run using 1, 5, 10, 20, 50, 100, 200, 400, 500 μM ATP and Km derived by non-linear regression fitting to the Michaelis–Menten equation v = Vmax[S]/(Km + [S]). IC50 values for inhibitors via non-linear regression using a parameter model: Y = Bottom + (Top–Bottom)/(1 + (IC50/X)^HillSlope). Non-linear regression was carried out in Prism (version 8). In vitro selectivity screen was carried out as described previously.

PAK4 = PAK4 (Homo sapiens, UniProt O96013); assay: Selectivity screen PAK4; assay type: biochemical; details: 1 µM inhibitor, mean
Protocol: as §1

EPH-B4 = EPH-B4 (Homo sapiens, UniProt P54760); assay: Selectivity screen EPH-B4; assay type: biochemical; details: 1 µM inhibitor, mean
Protocol: as §1

MSK1 = MSK1 (Homo sapiens, UniProt O75582); assay: Selectivity screen MSK1; assay type: biochemical; details: 1 µM inhibitor, mean
Protocol: as §1

HIPK3 = HIPK3 (Homo sapiens, UniProt Q9H422); assay: Selectivity screen HIPK3; assay type: biochemical; details: 1 µM inhibitor, mean
Protocol: as §1

p38d MAPK = p38d MAPK (Homo sapiens, UniProt O15264); assay: Selectivity screen p38d MAPK; assay type: biochemical; details: 1 µM inhibitor, mean
Protocol: as §1

PAK6 = PAK6 (Homo sapiens, UniProt Q9NQU5); assay: Selectivity screen PAK6; assay type: biochemical; details: 1 µM inhibitor, mean
Protocol: as §1

TTBK2 = TTBK2 (Homo sapiens, UniProt Q6IQ55); assay: Selectivity screen TTBK2; assay type: biochemical; details: 1 µM inhibitor, mean
Protocol: as §1

Aurora B = Aurora B (Homo sapiens, UniProt Q96GD4); assay: Selectivity screen Aurora B; assay type: biochemical; details: 1 µM inhibitor, mean
STK33 = STK33 (Homo sapiens, UniProt Q9BYT3); assay: Selectivity screen STK33; assay type: biochemical; details: 1 µM inhibitor, mean
Protocol: as §1

PKA = PKA (Homo sapiens, UniProt P17612); assay: Selectivity screen PKA; assay type: biochemical; details: 1 µM inhibitor, mean
Protocol: as §1

MKK1 = MKK1 (Homo sapiens, UniProt Q02750); assay: Selectivity screen MKK1; assay type: biochemical; details: 1 µM inhibitor, mean
Protocol: as §1

PDGFRA = PDGFRA (Homo sapiens, UniProt P16234); assay: Selectivity screen PDGFRA; assay type: biochemical; details: 1 µM inhibitor, mean
Protocol: as §1

MARK2 = MARK2 (Homo sapiens, UniProt Q7KZI7); assay: Selectivity screen MARK2; assay type: biochemical; details: 1 µM inhibitor, mean
Protocol: as §1

MINK1 = MINK1 (Homo sapiens, UniProt Q8N4C8); assay: Selectivity screen MINK1; assay type: biochemical; details: 1 µM inhibitor, mean
Protocol: as §1

MELK = MELK (Homo sapiens, UniProt Q14680); assay: Selectivity screen MELK; assay type: biochemical; details: 1 µM inhibitor, mean
Protocol: as §1

YES1 = YES1 (Homo sapiens, UniProt P07947); assay: Selectivity screen YES1; assay type: biochemical; details: 1 µM inhibitor, mean
Protocol: as §1

TLK1 = TLK1 (Homo sapiens, UniProt Q9UKI8); assay: Selectivity screen TLK1; assay type: biochemical; details: 1 µM inhibitor, mean
Protocol: as §1

HER4 = HER4 (Homo sapiens, UniProt Q15303); assay: Selectivity screen HER4; assay type: biochemical; details: 1 µM inhibitor, mean
Protocol: as §1

[2] = inhibitor 2 h, 0.5 μM Ruxolitinib

Chain of MELK (Q14680 whole entry): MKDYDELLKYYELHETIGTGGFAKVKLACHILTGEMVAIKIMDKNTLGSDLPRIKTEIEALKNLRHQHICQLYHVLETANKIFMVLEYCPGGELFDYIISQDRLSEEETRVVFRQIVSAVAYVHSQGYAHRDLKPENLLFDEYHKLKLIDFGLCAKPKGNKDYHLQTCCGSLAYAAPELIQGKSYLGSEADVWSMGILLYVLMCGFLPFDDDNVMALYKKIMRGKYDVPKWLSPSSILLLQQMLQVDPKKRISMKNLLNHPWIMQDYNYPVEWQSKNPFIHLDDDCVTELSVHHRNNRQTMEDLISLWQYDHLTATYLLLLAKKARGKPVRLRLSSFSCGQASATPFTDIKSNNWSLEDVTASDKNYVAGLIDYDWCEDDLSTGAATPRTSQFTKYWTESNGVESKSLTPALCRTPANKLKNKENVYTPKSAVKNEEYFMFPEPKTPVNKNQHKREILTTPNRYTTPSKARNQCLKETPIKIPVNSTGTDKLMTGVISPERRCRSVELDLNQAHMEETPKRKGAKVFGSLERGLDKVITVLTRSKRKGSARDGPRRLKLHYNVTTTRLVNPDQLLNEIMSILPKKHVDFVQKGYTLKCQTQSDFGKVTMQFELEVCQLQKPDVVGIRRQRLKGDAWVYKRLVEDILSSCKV
Chain of YES1 (P07947 whole entry): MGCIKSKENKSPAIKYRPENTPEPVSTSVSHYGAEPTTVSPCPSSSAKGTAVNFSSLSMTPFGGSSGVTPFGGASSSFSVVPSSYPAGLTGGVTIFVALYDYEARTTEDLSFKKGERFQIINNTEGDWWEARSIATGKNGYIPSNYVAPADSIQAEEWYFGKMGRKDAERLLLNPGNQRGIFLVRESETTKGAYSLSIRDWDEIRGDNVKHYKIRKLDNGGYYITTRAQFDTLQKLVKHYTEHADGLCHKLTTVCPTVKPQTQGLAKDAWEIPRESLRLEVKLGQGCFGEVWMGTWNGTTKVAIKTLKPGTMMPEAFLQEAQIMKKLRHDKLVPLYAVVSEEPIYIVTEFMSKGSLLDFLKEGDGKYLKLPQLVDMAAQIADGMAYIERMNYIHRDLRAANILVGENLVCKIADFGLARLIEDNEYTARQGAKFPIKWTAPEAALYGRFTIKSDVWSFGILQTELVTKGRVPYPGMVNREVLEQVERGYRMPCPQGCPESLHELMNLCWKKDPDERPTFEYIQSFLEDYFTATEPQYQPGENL
Chain of Aurora B (Q96GD4 whole entry): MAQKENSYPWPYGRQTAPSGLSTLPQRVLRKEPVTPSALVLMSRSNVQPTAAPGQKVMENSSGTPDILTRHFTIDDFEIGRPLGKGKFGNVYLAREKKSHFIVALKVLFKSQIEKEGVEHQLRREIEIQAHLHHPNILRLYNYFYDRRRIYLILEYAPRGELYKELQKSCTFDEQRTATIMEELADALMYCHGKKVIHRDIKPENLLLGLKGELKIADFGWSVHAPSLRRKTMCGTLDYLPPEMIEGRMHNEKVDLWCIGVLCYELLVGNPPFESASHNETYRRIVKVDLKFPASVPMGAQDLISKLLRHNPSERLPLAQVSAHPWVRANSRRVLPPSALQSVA
Chain of HIPK3 (Q9H422 whole entry): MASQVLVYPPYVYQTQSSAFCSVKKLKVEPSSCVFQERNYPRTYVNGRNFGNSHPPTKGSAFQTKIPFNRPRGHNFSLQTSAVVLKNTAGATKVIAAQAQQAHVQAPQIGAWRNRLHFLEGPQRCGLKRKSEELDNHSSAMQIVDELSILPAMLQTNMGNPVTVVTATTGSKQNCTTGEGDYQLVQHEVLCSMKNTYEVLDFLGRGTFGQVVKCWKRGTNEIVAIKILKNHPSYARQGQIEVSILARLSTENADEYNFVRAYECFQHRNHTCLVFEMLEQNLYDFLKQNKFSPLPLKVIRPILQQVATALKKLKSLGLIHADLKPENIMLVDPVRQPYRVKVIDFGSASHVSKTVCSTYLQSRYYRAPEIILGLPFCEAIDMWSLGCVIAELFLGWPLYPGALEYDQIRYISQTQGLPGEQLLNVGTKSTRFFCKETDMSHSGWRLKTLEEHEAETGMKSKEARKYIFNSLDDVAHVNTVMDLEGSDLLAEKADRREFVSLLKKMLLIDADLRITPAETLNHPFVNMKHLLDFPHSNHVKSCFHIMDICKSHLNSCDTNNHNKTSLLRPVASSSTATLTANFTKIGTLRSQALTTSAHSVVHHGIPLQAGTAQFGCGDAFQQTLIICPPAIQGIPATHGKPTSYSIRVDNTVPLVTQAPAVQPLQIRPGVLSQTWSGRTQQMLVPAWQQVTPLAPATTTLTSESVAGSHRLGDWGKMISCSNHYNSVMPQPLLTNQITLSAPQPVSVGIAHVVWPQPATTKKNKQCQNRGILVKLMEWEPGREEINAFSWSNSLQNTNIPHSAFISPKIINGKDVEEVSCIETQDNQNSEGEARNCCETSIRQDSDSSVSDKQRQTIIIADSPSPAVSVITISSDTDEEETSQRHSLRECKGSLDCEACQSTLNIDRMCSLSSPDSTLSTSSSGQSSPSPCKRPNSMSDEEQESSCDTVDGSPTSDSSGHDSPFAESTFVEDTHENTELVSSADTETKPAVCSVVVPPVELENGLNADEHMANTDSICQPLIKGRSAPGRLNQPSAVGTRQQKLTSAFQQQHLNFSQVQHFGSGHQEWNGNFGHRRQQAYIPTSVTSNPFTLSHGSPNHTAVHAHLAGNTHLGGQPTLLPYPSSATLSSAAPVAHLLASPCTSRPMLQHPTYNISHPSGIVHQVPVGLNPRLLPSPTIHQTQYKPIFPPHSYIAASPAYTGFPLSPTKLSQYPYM
Chain of TLK1 (Q9UKI8 whole entry): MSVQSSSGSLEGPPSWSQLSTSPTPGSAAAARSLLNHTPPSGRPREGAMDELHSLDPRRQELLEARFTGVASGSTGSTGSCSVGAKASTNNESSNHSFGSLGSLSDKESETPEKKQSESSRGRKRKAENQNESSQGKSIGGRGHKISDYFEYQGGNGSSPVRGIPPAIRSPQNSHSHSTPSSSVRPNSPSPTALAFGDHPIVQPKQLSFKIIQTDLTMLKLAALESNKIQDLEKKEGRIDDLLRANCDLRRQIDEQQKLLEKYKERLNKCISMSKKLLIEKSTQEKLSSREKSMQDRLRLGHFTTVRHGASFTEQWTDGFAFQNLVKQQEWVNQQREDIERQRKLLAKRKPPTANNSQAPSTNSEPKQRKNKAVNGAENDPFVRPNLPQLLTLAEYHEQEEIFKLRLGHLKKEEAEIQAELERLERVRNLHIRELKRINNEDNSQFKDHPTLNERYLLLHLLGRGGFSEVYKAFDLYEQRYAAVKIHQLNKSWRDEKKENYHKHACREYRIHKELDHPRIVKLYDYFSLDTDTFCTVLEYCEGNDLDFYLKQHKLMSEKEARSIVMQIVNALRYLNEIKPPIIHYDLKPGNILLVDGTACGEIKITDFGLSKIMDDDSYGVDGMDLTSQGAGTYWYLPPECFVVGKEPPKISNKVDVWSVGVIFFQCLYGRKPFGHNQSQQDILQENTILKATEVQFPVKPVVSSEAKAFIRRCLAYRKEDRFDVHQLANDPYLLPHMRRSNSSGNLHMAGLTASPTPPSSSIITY
Chain of MARK2 (Q7KZI7 whole entry): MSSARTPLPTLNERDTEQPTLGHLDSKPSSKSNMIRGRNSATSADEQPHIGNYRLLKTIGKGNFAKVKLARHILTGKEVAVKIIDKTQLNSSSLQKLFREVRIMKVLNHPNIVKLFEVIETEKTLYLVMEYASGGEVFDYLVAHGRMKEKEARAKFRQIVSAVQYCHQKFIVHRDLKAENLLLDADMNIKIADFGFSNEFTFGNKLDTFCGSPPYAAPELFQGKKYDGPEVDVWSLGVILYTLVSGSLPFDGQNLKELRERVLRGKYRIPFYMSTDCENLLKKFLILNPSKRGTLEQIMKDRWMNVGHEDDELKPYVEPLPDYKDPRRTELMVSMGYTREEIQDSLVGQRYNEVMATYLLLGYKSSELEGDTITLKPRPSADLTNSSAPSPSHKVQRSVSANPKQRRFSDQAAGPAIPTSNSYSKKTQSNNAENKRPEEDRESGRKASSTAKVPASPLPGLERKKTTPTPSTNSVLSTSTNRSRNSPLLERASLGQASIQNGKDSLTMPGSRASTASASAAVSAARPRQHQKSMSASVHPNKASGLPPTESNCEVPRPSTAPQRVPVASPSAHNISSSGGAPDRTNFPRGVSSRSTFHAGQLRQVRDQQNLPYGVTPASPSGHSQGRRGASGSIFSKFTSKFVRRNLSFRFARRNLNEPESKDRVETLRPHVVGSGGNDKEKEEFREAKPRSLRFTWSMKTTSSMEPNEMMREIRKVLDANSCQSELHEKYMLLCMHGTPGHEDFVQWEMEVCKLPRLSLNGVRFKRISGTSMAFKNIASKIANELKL
Chain of p38d MAPK (O15264 whole entry): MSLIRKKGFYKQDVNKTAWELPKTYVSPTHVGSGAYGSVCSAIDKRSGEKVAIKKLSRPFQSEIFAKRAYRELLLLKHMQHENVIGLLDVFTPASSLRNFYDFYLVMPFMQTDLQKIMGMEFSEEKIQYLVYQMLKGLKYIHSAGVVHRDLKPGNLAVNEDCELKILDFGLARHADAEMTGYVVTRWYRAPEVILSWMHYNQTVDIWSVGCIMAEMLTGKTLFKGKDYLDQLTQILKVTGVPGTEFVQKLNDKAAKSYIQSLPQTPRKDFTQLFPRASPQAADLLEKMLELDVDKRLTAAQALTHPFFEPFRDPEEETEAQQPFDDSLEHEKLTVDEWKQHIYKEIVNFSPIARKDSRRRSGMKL

Structure (SMILES) | inhibition of IL-4 induced STAT6 phosphorylation after inhibitor washout, wild type BMDMs [1, 2] | activity remaining in the presence of the inhibitor: PHK (PHK) | activity remaining in the presence of the inhibitor: PAK4 (PAK4) | activity remaining in the presence of the inhibitor: EPH-B4 (EPH-B4) | activity remaining in the presence of the inhibitor: MSK1 (MSK1) | activity remaining in the presence of the inhibitor: HIPK3 (HIPK3) | activity remaining in the presence of the inhibitor: p38d MAPK (p38d MAPK) | activity remaining in the presence of the inhibitor: PAK6 (PAK6) | activity remaining in the presence of the inhibitor: TTBK2 (TTBK2) | activity remaining in the presence of the inhibitor: Aurora B (Aurora B) | activity remaining in the presence of the inhibitor: STK33 (STK33) | activity remaining in the presence of the inhibitor: PKA (PKA) | activity remaining in the presence of the inhibitor: MKK1 (MKK1) | activity remaining in the presence of the inhibitor: PDGFRA (PDGFRA) | activity remaining in the presence of the inhibitor: MARK2 (MARK2) | activity remaining in the presence of the inhibitor: MINK1 (MINK1) | activity remaining in the presence of the inhibitor: MELK (MELK) | activity remaining in the presence of the inhibitor: YES1 (YES1) | activity remaining in the presence of the inhibitor: TLK1 (TLK1) | activity remaining in the presence of the inhibitor: HER4 (HER4) | other results
C=CC(=O)N1C[C@H](Nc2ncnc3[nH]ccc23)CC[C@@H]1C [PF-06651600, 1-((2S,5R)-5-((7H-Pyrrolo[2,3-d]pyrimidin-4-yl)amino)-2-methylpiperidin-1-yl)prop-2-en-1-one, reference compound] | retained | – | – | – | – | – | – | – | – | – | – | – | – | – | – | – | – | – | – | – | inhibition of IL-4 induced STAT6 phosphorylation 24 h after inhibitor washout, wild type BMDMs ([1]; 100 μM PF-06651600 for 2 h, washout, 24 h time point): Some inhibition was retained
C=CC(=O)Nc1cccc(CNc2nc(Nc3ccc(N4CCN(C)CC4)cc3OC)ncc2Cl)c1 [TL6-144] | much lower than in control cells | 40 | 99 | 83 | 86 | 91 | 94 | 77 | 94 | 81 | 81 | 104 | 79 | 67 | 84 | 80 | 69 | 89 | 102 | 9 | block of IL-4 induced STAT6 phosphorylation without washout, wild type BMDMs ([1]; inhibitor 2 h, no washout, 0.5 μM Ruxolitinib, 10 μM TL6-144): completely blocked
C=CC(=O)Nc1cccc(CNc2nc(Nc3ccc(N4CCOCC4)cc3)ncc2Cl)c1 [TL8-52] | – | 78 | 85 | 104 | 54 | 107 | 93 | 99 | 106 | 13 | 94 | 74 | 84 | 35 | 37 | 80 | 66 | 47 | 82 | 31 | –
